Experimental findings from patent US6774143B1, “Method for treating cells resistant to antineoplastic agents” (Novartis AG, priority 2003, dated 2004) are described below.

SMILES strings stand for the structures. ≈ marks a conversion by molar mass, not a printed value.

The subject of one assay is 1A9 cells. The experiment in a line: In vitro cytotoxicity assay (MTT). The class given is cell-based. Particulars: Homo sapiens, 1A9, 1A9 cells; cytotoxic control; experiment not specified; read-out: IC50. As for the experimental part:
(§1) 1A9 and 1A9PTX22 cells are plated in 96-well plates at 5×10^4 cells/well, plced in a tissue culture incubator and allowed to attach overnight. The next morning, the number of viable cells in the “time 0” plate (3 wells for each cell line) is determined using an MTT assay (Alley M C, et al., Cancer Res. 1988, 48:589-601).
(§2) At the same time drugs are added in serial, 10-fold dilutions, to the experimental plates. Corresponding vehicles are added to control plates. Experimental and control plates are then incubated in the tissue culture incubator for 72 hours. After the incubation the number of viable cells is determined in each plate using the MTT assay. IC50s (defined as a concentration of a given compound causing 50% inhibition of cell growth) are determined by comparing cell growth in the drug-treated plate (T−T0) to the cell growth in the corresponding control plate (C−T0). For each experiment results are calculated using average numbers from two sets of plates.
(§3) Discodermolide is isolated from the sponge Discodermia dissoluta using the method of Gunasekera SP (supra). Multiple batches of compound of similar purity (all>95% pure, as determined by mass spectrometry, and nuclear magnetic resonance analysis) are used throughout the various studies. For the in vitro cytotoxicity assays all compounds are dissolved in DMSO and are added to the plates with cells to obtain desired concentrations. […] Paclitaxel is purchased from Sigma/Aldrich, (St. Louis, Mo.). For the in vivo hollow fiber assay, solid discodermolide is dissolved in pure ethanol to create a stock solution which is diluted just before dosing with Cremophor EL and D5W to a final concentration of 16.7% Cremophor EL, 8.3% ethanol and 75% D5W. The compound is administered to mice as a single, 15 mg/kg iv injection. Positive control animals receive clinical formulations of paclitaxel (TAXOL) diluted 4-fold with D5W (12.5% Cremophor El, 12.5% ethanol and 75% D5W final concentrations) and administered iv, at 15 mg/kg, once daily for five consecutive days. Vehicle controls are administered according to the corresponding drug schedules.

Assay [1] has as its system 1A9PTX22 cells (β-tubulin mutation). The experiment in a line: In vitro cytotoxicity assay (MTT). The class given is cell-based, human. On the procedure: as §1, §2, §3

By IC50 is commonly meant the concentration at which inhibition is half-maximal. Take `COc1cccc2c1C(=O)c1c(O)c3c(c(O)c1C2=O)C[C@@](O)(C(=O)CO)C[C@@H]3O[C@H]1C[C@H](N)[C@H](O)[C@H](C)O1` [Doxorubicin]: the IC50 was 3 ng/mL (≈ 5.52 nM) in the assay on 1A9 cells and 3 to 5 ng/mL (≈ 5.52 to 9.2 nM) in assay [1] (Homo sapiens, 1A9/ptx-22, 1A9PTX22 cells, cytotoxic control, experiment not specified, read-out: IC50). Further, the “fold resistance of 1A9PTX22 versus parental 1A9” value in assay [1] (from IC50s of the two in vitro experiments) is recorded as 2 fold.
